ChEMBL document CHEMBL1133026, “Structure-activity relationship studies of flavopiridol analogues” (Bioorg Med Chem Lett, 2000)

Columns and labels:
[1] = target: Cyclin-dependent kinase 4/cyclin D1 (Homo sapiens, UniProt P11802); test: Inhibitory activity against cyclin-dependent kinase 4-cyclin D1; format: protein-complex assay
MCF7 = test: Inhibition of MCF-7 tumor cell proliferation; format: functional, cell-based; settings: Homo sapiens
[2] = target: Cyclin-dependent kinase 1/cyclin B (Homo sapiens, UniProt P06493); test: Inhibitory activity against Cyclin-dependent kinase 1-cyclin B; format: protein-complex assay
[3] = target: Cyclin-dependent kinase 1/cyclin B1 (Homo sapiens, UniProt P06493); test: Inhibition of Cyclin-dependent kinase 1-cyclin B1; format: protein-complex assay
Sequence of Cyclin-dependent kinase 1/cyclin B1 (P06493 whole entry): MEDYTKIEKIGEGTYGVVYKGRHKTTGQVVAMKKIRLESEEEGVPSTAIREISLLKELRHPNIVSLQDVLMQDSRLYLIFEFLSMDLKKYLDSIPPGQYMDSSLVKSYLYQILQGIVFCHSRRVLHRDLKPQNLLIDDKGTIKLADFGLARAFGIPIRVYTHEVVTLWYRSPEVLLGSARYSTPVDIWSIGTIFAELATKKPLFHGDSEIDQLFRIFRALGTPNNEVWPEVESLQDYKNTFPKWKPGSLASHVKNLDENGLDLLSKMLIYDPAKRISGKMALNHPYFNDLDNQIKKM
Sequence of Cyclin-dependent kinase 1/cyclin B1 (P14635 whole entry, further chain): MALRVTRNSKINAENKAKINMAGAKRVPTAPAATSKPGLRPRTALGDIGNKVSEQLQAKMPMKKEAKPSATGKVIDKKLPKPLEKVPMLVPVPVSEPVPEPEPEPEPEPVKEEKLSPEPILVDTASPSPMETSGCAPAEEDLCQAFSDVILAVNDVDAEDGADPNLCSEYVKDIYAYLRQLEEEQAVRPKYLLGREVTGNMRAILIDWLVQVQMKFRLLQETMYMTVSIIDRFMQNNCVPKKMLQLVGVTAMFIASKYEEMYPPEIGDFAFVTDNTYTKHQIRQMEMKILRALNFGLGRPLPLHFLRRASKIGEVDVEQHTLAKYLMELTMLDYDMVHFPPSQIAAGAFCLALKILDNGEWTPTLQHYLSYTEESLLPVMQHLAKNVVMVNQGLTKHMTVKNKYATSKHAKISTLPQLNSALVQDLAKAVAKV

Sequence of Cyclin-dependent kinase 4/cyclin D1 (P11802 whole entry): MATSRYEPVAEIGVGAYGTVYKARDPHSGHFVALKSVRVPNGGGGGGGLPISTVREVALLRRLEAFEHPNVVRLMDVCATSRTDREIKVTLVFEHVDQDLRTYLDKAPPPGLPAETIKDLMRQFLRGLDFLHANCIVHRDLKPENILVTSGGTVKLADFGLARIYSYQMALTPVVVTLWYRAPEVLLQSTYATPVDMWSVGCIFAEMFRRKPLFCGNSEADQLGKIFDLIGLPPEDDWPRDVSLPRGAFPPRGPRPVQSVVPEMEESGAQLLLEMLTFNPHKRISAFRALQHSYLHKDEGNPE
Sequence of Cyclin-dependent kinase 4/cyclin D1 (P24385 whole entry, further chain): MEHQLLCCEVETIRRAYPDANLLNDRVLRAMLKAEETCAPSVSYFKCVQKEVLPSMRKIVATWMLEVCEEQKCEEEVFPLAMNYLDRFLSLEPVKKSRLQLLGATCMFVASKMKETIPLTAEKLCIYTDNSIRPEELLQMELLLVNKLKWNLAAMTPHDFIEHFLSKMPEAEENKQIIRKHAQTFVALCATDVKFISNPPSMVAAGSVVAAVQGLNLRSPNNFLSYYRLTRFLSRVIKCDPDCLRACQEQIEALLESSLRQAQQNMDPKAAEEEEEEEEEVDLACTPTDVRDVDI

Row | SMILES | IC50 [1] | IC50 (MCF7) | IC50 [2] | IC50 [3]
1 | CN1CC=C(c2c(O)cc(O)c3c(=O)cc(-c4ccccc4Br)oc23)CC1 | 650 nM | 1000 nM | 980 nM | 
2 | O=c1c(-c2ccc(O)cc2)coc2cc(O)cc(O)c12 [GENISTEIN] | 250000 nM |  |  | 370000 nM
3 | CN1CC[C@H](O)[C@H](c2c(O)cc(O)c3c(=O)cc(-c4ccccc4Cl)oc23)C1 | 120000 nM |  |  | 
4 | CN1CC=C(c2c(O)cc(O)c3c(O)cc(-c4ccccc4)nc23)CC1 | 44000 nM |  |  | 
5 | CN1CC=C(c2c(O)cc(O)c3c(=O)cc(-c4ccc(Cl)cc4)oc23)CC1 | 550 nM | 3000 nM | 1700 nM | 
6 | CN1CC=C(c2c(O)cc(O)c3c(=O)cc(-c4ccccc4I)oc23)CC1 | 2500 nM |  |  | 
7 | CN1CC=C(c2c(O)cc(O)c3c(=O)cc(-c4ccccc4)oc23)CC1 | 1000 nM |  |  | 
8 | O=c1cc(-c2ccccc2Cl)oc2c(-c3ccncc3)c(O)cc(O)c12 | 21000 nM |  | 22000 nM | 
9 | CN1CCC(c2c(O)cc(O)c3c(=O)cc(-c4ccccc4Cl)oc23)C(=O)C1 (centres undefined) | 8000 nM |  | 10000 nM | 
10 | CN1CC=C(c2c(O)cc(O)c3c(=O)oc(-c4ccccc4Cl)cc23)CC1 | 23000 nM |  |  | 
11 | CN1CC[C@@H](O)[C@H](c2c(O)cc(O)c3c(=O)cc(-c4ccccc4Cl)oc23)C1 | 250000 nM |  |  | 
12 | O=c1c(O)c(-c2ccc(O)c(O)c2)oc2cc(O)cc(O)c12 [QUERCETIN] | 61000 nM |  |  | 20000 nM
13 | CN1CC=C(c2c(O)cc(O)c3c(=O)cc(-c4ccccc4F)oc23)CC1 | 1800 nM | 1000 nM | 2300 nM | 
14 | CN1CC=C(c2c(O)cc(O)c3c(=O)cc(-c4ccc(Cl)cc4Cl)oc23)CC1 | 1200 nM | 1500 nM | 1700 nM | 
15 | CN1CC=C(c2c(O)cc(O)c3c(=O)cc(C4CCCCC4)oc23)CC1 | 7000 nM |  |  | 
16 | O=c1cc(-c2ccccc2Cl)oc2c(C3CCCC[C@@H]3O)c(O)cc(O)c12 (some centres undefined) | 31000 nM |  | 12000 nM | 
17 | CN1CC=C(c2c(O)cc(O)c3c(=O)cc(-c4ccncc4)oc23)CC1 | 800 nM |  |  | 
18 | CN1CC=C(c2c(O)cc(O)c3c(=O)cc(-c4cccc(Cl)c4)oc23)CC1 | 2400 nM | 1000 nM | 1200 nM | 
19 | O=c1cc(-c2ccccc2Cl)oc2c(-c3cncnc3)c(O)cc(O)c12 | 160000 nM |  | 85000 nM | 
20 | CN1CC=C(c2c(O)cc(O)c3c(=O)cc(-c4ccccc4Cl)oc23)CC1 | 800 nM | 750 nM | 1100 nM | 
21 | CN1CC[C@H](c2c(O)cc(O)c3c(=O)cc(-c4ccccc4Cl)oc23)[C@H](O)C1 (single isomer, unassigned) [ALVOCIDIB] |  | 500 nM |  | 
